Measured values published in patent publication US10208077B1, “Aesculin lipoic acid ester with antioxidant activity and a method of preparing the same” (SHAANXI UNIVERSITY OF SCIENCE AND TECHNOLOGY, priority 2018, dated 2019).

Assay: DPPH radical scavenging activity assay
Type: biochemical
Settings: for Scavenging activity (%): 0.2 mmol/L DPPH, 30 min, room temperature, dark, absorbance at 517 nm
Excerpt: The Antioxidant Activity of the Aesculin Lipoic Acid Ester Measured by a DPPH Radical Scavenging Activity Assay
2,2-Diphenyl-1-picryl hydrazyl (DPPH) is an organic compound composed of a stable organic radical. In the DPPH molecule, due to the presence of multiple electron-withdrawing —NO2 and large π bonds of the benzene ring, nitrogen free radical is stabilized. Its methanol solution is purple and has a maximum absorption peak at 517 nm. After the addition of an antioxidant, DPPH captures an electron to be paired with the free electron, and the purple fades and turns into a yellow substance. The absorption at 517 nm disappears, and the degree of fading is quantitatively related to the number of electrons it captures. Based on this principle, a spectrophotometer is used to detect the change of the absorbance of the DPPH radical and the sample solution, and the ability of the sample to provide hydrogen atoms and scavenge free radicals can be measured.
Preparation of DPPH solution: measuring exact amount of 2,2-diphenyl-1-picryl hydrazyl (DPPH) and dissolving in methanol to prepare a 0.2 mmol/L DPPH solution, stored at 0° C. in dark.
Preparation of sample solutions: the aesculin lipoic acid ester was diluted with a concentration gradient of 1.82, 7.28, 24.2, 48.4, 72.6, 96.8, 242, 484, 726, 968 ppm with acetonitrile to prepare sample solutions to be tested. Control samples (vitamin C, aesculin, lipoic acid, a mixture of aesculin and lipoic acid) were diluted with methanol in the same manner in the same concentration gradient to obtain the corresponding four groups of control solutions.
Measuring the Scavenging Activity of the Sample Solutions:
2 mL of the sample solutions at each concentration gradient was taken, 2 mL 0.2 mmol/L DPPH solution was added, the mixture was mixed and reacted at room temperature in dark for 30 minutes, and methanol was then added to adjust final volume. The absorbance Ai was measured at 517 nm. 2 mL control solution and 2 mL methanol were mixed, and the absorbance Aj was measured. 2 mL DPPH solution and 2 mL methanol were mixed, and the absorbance A0 was measured. The scavenging activity of the sample solution and control solutions is calculated according to the following calculation formula. Scavenging activity (%)=100×[1−(Ai−Aj)/A0]

SMILES	Scavenging activity (%) (1.82 ppm)	Scavenging activity (%) (7.28 ppm)	Scavenging activity (%) (24.2 ppm)	Scavenging activity (%) (48.4 ppm)	Scavenging activity (%) (72.6 ppm)	Scavenging activity (%) (96.8 ppm)	Scavenging activity (%) (242 ppm)	Scavenging activity (%) (484 ppm)	Scavenging activity (%) (726 ppm)	Scavenging activity (%) (968 ppm)	free radical clearance rate (achieved at a lower concentration than aesculin, lipoic acid and their mixture)
O=C(O)CCCC[C@@H]1CCSS1 (racemic) [Lipoic acid]	0.86%	1.14%	1.43%	1.62%	2.47%	3.81%	8.47%	16.65%	20.17%	21.88%	–
O=C(CCCC[C@@H]1CCSS1)OCC1OC(Oc2cc3ccc(=O)oc3cc2O)C(O)C(O)C1O (some centres unmarked) [Aesculin lipoic acid ester, aesculin lipoic acid ester]	30.93%	42.73%	57.70%	72.90%	83.5%	89.73%	95.30%	96.50%	96.83%	96.94%	more than 90%
O=c1ccc2cc(O[C@@H]3O[C@H](CO)[C@@H](O)[C@H](O)[C@H]3O)c(O)cc2o1 [Aesculin]	3.44%	3.53%	5.12%	5.56%	8.12%	10.77%	24.01%	42.54%	58.34%	70.70%	–
O=C1O[C@H]([C@@H](O)CO)C(O)=C1O [Vitamin C, vitamin C]	23.86%	72.45%	96.70%	96.99%	97.58%	97.77%	97.77%	98.06%	98.06%	98.06%	–
